Experimental data as given in ChEMBL document CHEMBL4177634, “6-Substituted quinolines as RORγt inverse agonists” (Bioorg Med Chem Lett, 2017).

Target: T1, Nuclear receptor ROR-gamma (Homo sapiens, UniProt P51449)
T1 sequence (P51449 whole entry): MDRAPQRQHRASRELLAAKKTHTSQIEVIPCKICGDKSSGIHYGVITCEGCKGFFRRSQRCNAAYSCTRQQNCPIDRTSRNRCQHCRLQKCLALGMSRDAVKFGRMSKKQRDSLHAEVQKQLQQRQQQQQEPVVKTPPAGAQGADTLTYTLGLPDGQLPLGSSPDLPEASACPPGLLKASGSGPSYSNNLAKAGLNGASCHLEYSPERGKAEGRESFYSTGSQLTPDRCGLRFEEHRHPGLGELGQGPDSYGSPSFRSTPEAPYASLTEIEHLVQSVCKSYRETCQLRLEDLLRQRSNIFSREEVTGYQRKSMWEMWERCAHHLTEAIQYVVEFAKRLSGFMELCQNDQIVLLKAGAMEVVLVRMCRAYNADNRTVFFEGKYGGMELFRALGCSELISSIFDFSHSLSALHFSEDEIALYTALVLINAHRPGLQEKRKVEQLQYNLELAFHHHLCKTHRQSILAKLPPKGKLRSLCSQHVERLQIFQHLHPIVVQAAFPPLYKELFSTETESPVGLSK
Experiment: Displacement of 1,8-ANS from human N-terminal His-tagged RORgammat LBD ([…]) expressed in Escherichia coli by thermofluor assay

In the case of `COc1nc2ccc(C(O)(c3ccccc3)C3CCN(C(C)=O)CC3)cc2c(Cl)c1Cc1ccc(-n2cccn2)cc1` (stereo in doubt; 25a), the Kd is reported as 3.6 nM.
